Measured values as given in patent publication US6737383B1, “Herbicidal oxadiazolidines” (priority 1999, dated 2004).

What was measured:
[1] = system: bedstraw; assay: Test B pre/postemergence bedstraw; type: in vivo, Galium aparine
How it was run: (§1)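 Test chemicals in a non-phytotoxic solvent mixture with surfactant were sprayed preemergence onto planted seeds and postemergence onto plants 2 to 18 cm tall (1- to 4-leaf stage). After twelve to sixteen days in a greenhouse, injury was visually rated against untreated controls from 0 (no effect) to 10 (complete control).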

[2] = system: surinam grass; assay: Test B pre/postemergence surinam grass; type: in vivo, Brachiaria decumbens
How it was run: as §1

[3] = system: cocklebur; assay: Test B pre/postemergence cocklebur; type: in vivo, Xanthium strumarium
How it was run: as §1

[4] = system: corn; assay: Test B pre/postemergence corn; type: in vivo, Zea mays
How it was run: as §1

[5] = system: giant foxtail; assay: Test B pre/postemergence giant foxtail; type: in vivo, Setaria faberii
How it was run: as §1

[6] = system: pigweed; assay: Test B pre/postemergence pigweed; type: in vivo, Amaranthus retroflexus
How it was run: as §1

[7] = system: rape; assay: Test B pre/postemergence rape; type: in vivo, Brassica napus
How it was run: as §1

[8] = system: soybean; assay: Test B pre/postemergence soybean; type: in vivo, Glycine max
How it was run: as §1

[9] = system: sugar beet; assay: Test B pre/postemergence sugar beet; type: in vivo, Beta vulgaris
How it was run: as §1

[10] = system: velvetleaf; assay: Test B pre/postemergence velvetleaf; type: in vivo, Abutilon theophrasti
How it was run: as §1

[11] = system: wheat; assay: Test B pre/postemergence wheat; type: in vivo, Triticum aestivum
How it was run: as §1

[12] = system: wild oat; assay: Test B pre/postemergence wild oat; type: in vivo, Avena fatua
How it was run: as §1

[13] = system: purple nutsedge; assay: Test B pre/postemergence purple nutsedge; type: in vivo, Cyperus rotundus
How it was run: as §1

[14] = system: rice; assay: Test B flood test rice; type: in vivo, Oryza sativa
How it was run: (§2)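 Each value is a visual injury score relative to controls, with 10 meaning complete control and 0 no effect. Evaluation took place twelve to sixteen days after the 2-leaf-stage plants were treated and kept in the greenhouse.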

[15] = system: smallflower flatsedge; assay: Test B flood test smallflower flatsedge; type: in vivo, Cyperus difformis
How it was run: as §2

[16] = system: duck salad; assay: Test B flood test duck salad; type: in vivo, Heteranthera limosa
How it was run: as §2

[17] = Preemergence, Rate 62 g/ha, scale of 0 to 10 where 0 is no effect and 10 is complete control
[18] = Preemergence, Rate 125 g/ha, 0 is no effect, 10 is complete control
[19] = Preemergence, Rate 250 g/ha, scale 0 to 10, 0 is no effect, 10 is complete control
[20] = Preemergence, Rate 500 g/ha, scale of 0 to 10 where 0 is no effect and 10 is complete control
[21] = Rate 62 g/ha, Postemergence, scale of 0 to 10 where 0 is no effect and 10 is complete control
[22] = Rate 125 g/ha, Postemergence, scale 0 to 10
[23] = Rate 500 g/ha, Postemergence, scale 0 to 10
[24] = Rate 62 g/ha, headed Pre-emergence (flood test species), scale 0 to 10 (0 no effect, 10 complete control)
[25] = Rate 125 g/ha, Pre-emergence, flood test species, scale 0 to 10 where 0 is no effect and 10 is complete control
[26] = Rate 250 g/ha, Pre-emergence, flood-test species, scale 0 to 10, 0 is no effect, 10 is complete control
[27] = Rate 500 g/ha, Pre-emergence, flood test species, scale 0 to 10 (0 no effect, 10 complete control)

CC(C)N(C(=O)n1oc(=O)n(Cc2ccco2)c1=O)c1ccc(F)cc1 [Compound 207]
Bedstraw plant response rating [1, 17]: 0
Bedstraw plant response rating (0 to 10 scale) [1, 18]: 0
Bedstraw plant response rating [1, 19]: 0
Plant response rating, Bedstraw [1, 20]: 0
Bedstraw plant response rating [1, 21]: 0
Bedstraw plant response rating [1, 22]: 0
Plant response rating (0 to 10; 0 is no effect, 10 is complete control), Bedstraw ([1]; Rate 250 g/ha, Postemergence): 5
Bedstraw plant response rating [1, 23]: 5
B. signalgrass plant response rating [2, 17]: 0
B. signalgrass plant response rating (0 to 10 scale) [2, 18]: 0
B. signalgrass plant response rating [2, 19]: 0
Plant response rating, B. signalgrass [2, 20]: 0
B. signalgrass plant response rating [2, 21]: 0
B. signalgrass plant response rating ([2]; Rate 125 g/ha, Postemergence, scale 0 (no effect) to 10 (complete control)): 0
Plant response rating, B. signalgrass ([2]; Rate 250 g/ha, Postemergence, scale 0 to 10, 0 is no effect, 10 is complete control): 0
B. signalgrass plant response rating ([2]; Rate 500 g/ha, Postemergence, scale 0 to 10, 0 no effect, 10 complete control): 0
Cocklebur plant response rating [3, 17]: 0
Cocklebur plant response rating (0 to 10 scale) [3, 18]: 0
Cocklebur plant response rating [3, 19]: 0
Plant response rating, Cocklebur [3, 20]: 0
Cocklebur plant response rating [3, 21]: 0
Cocklebur plant response rating [3, 22]: 0
Plant response rating (0 to 10; 0 is no effect, 10 is complete control), Cocklebur ([3]; Rate 250 g/ha, Postemergence): 0
Cocklebur plant response rating [3, 23]: 3
Corn plant response rating [4, 17]: 0
Corn plant response rating (0 to 10 scale) [4, 18]: 0
Corn plant response rating [4, 19]: 0
Plant response rating, Corn [4, 20]: 0
Corn plant response rating [4, 21]: 0
Corn plant response rating [4, 22]: 0
Plant response rating (0 to 10; 0 is no effect, 10 is complete control), Corn ([4]; Rate 250 g/ha, Postemergence): 0
Corn plant response rating [4, 23]: 0
Giant foxtail plant response rating [5, 17]: 3
Giant foxtail plant response rating (0 to 10 scale) [5, 18]: 6
Giant foxtail plant response rating [5, 19]: 9
Plant response rating, Giant foxtail [5, 20]: 10
Giant foxtail plant response rating [5, 21]: 0
Giant foxtail plant response rating [5, 22]: 0
Plant response rating (0 to 10; 0 is no effect, 10 is complete control), Giant foxtail ([5]; Rate 250 g/ha, Postemergence): 1
Giant foxtail plant response rating [5, 23]: 2
Redroot pigweed plant response rating [6, 17]: 0
Redroot pigweed plant response rating (0 to 10 scale) [6, 18]: 0
Redroot pigweed plant response rating [6, 19]: 2
Plant response rating, Redroot pigweed [6, 20]: 8
Redroot pigweed plant response rating [6, 21]: 0
Redroot pigweed plant response rating [6, 22]: 0
Plant response rating (0 to 10; 0 is no effect, 10 is complete control), Redroot pigweed ([6]; Rate 250 g/ha, Postemergence): 0
Redroot pigweed plant response rating [6, 23]: 0
Rape plant response rating [7, 17]: 0
Rape plant response rating (0 to 10 scale) [7, 18]: 0
Rape plant response rating [7, 19]: 0
Plant response rating, Rape [7, 20]: 2
Rape plant response rating [7, 21]: 0
Rape plant response rating [7, 22]: 0
Plant response rating (0 to 10; 0 is no effect, 10 is complete control), Rape ([7]; Rate 250 g/ha, Postemergence): 0
Rape plant response rating [7, 23]: 2
Soybean plant response rating [8, 17]: 0
Soybean plant response rating (0 to 10 scale) [8, 18]: 0
Soybean plant response rating [8, 19]: 0
Plant response rating, Soybean [8, 20]: 0
Soybean plant response rating [8, 21]: 1
Soybean plant response rating [8, 22]: 2
Plant response rating (0 to 10; 0 is no effect, 10 is complete control), Soybean ([8]; Rate 250 g/ha, Postemergence): 2
Soybean plant response rating [8, 23]: 5
Sugarbeets plant response rating [9, 17]: 0
Sugarbeets plant response rating (0 to 10 scale) [9, 18]: 0
Sugarbeets plant response rating [9, 19]: 0
Plant response rating, Sugarbeets [9, 20]: 0
Sugarbeets plant response rating [9, 21]: 0
Sugarbeets plant response rating [9, 22]: 0
Plant response rating (0 to 10; 0 is no effect, 10 is complete control), Sugarbeets ([9]; Rate 250 g/ha, Postemergence): 0
Sugarbeets plant response rating [9, 23]: 2
Velvetleaf plant response rating [10, 17]: 0
Velvetleaf plant response rating [10, 19]: 0
Plant response rating, Velvetleaf [10, 20]: 5
Velvetleaf plant response rating [10, 21]: 0
Velvetleaf plant response rating [10, 22]: 1
Plant response rating (0 to 10; 0 is no effect, 10 is complete control), Velvetleaf ([10]; Rate 250 g/ha, Postemergence): 1
Wheat plant response rating [11, 17]: 0
Wheat plant response rating [11, 19]: 0
Plant response rating, Wheat [11, 20]: 0
Wheat plant response rating [11, 21]: 0
Wheat plant response rating [11, 22]: 0
Plant response rating (0 to 10; 0 is no effect, 10 is complete control), Wheat ([11]; Rate 250 g/ha, Postemergence): 0
Wild oats plant response rating [12, 17]: 0
Wild oats plant response rating [12, 19]: 0
Plant response rating, Wild oats [12, 20]: 0
Wild oats plant response rating [12, 21]: 0
Wild oats plant response rating [12, 22]: 0
Plant response rating (0 to 10; 0 is no effect, 10 is complete control), Wild oats ([12]; Rate 250 g/ha, Postemergence): 0
Nutsedge plant response rating [13, 17]: 0
Nutsedge plant response rating (0 to 10 scale) [13, 18]: 0
Nutsedge plant response rating [13, 19]: 0
Plant response rating, Nutsedge [13, 20]: 0
Nutsedge plant response rating [13, 21]: 0
Nutsedge plant response rating [13, 22]: 0
Plant response rating (0 to 10; 0 is no effect, 10 is complete control), Nutsedge ([13]; Rate 250 g/ha, Postemergence): 0
Nutsedge plant response rating [13, 23]: 0
Rice plant response rating [14, 24]: 0
Rice plant response rating [14, 25]: 0
Rice plant response rating [14, 26]: 0
Rice plant response rating [14, 27]: 0
S. Flatsedge plant response rating [15, 24]: 0
S. Flatsedge plant response rating [15, 25]: 0
S. Flatsedge plant response rating [15, 26]: 0
S. Flatsedge plant response rating [15, 27]: 0
Ducksalad plant response rating [16, 24]: 0
Ducksalad plant response rating [16, 25]: 0
Ducksalad plant response rating [16, 26]: 0
Ducksalad plant response rating [16, 27]: 2
